What was measured:
Assay in all cases: relative viability vs DMSO control (72 h) (fraction); higher = more viable cells
KHOS-NP = system: KHOS-NP
Summary of the method: (§1)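 Sarcoma cell lines in 384-well plates, seeded to reach 80–90% confluence, were given compound after 24 h and kept 72 h at 37 °C, 5% CO2, with 0.1% DMSO vehicle and a 5 µM positive control. Relative viability came from ATPLite as percent growth, averaged over up to triplicate wells. On the rescaled values, 1 equals full and 0 equals none.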

MES-SA = system: MES-SA
Summary of the method: as §1

SW872 = system: SW872
Summary of the method: as §1

A204 = system: A204
Summary of the method: as §1

SW684 = system: SW684
Summary of the method: as §1

SK-ES-1 = system: SK-ES-1
Summary of the method: as §1

RD = system: RD
Summary of the method: as §1

VA-ES-BJ = system: VA-ES-BJ
Summary of the method: as §1

SYO-1 = system: SYO-1
Summary of the method: as §1

HS729 = system: HS729
Summary of the method: as §1

SK-LMS-1 = system: SK-LMS-1
Summary of the method: as §1

G401 = system: G401
Summary of the method: as §1

Cc1nc(Nc2ncc(C(=O)Nc3c(C)cccc3Cl)s2)cc(N2CCN(CCO)CC2)n1 [Dasatinib]
Settings | relative viability
A204, 0.00017 µM | 1.08
A204, 0.00051 µM | 1.04
A204, 0.00152 µM | 1.06
A204, 0.00457 µM | 1.02
A204, 0.01372 µM | 0.83
A204, 0.04115 µM | 0.501
A204, 0.1235 µM | 0.376
A204, 0.3704 µM | 0.356
A204, 1.111 µM | 0.356
A204, 3.333 µM | 0.314
A204, 10 µM | 0.281
G401, 0.00017 µM | 1
G401, 0.00051 µM | 0.996
G401, 0.00152 µM | 1.015
G401, 0.00457 µM | 1
G401, 0.01372 µM | 0.959
G401, 0.04115 µM | 0.876
G401, 0.1235 µM | 0.833
G401, 0.3704 µM | 0.789
G401, 1.111 µM | 0.7831
G401, 3.333 µM | 0.69
G401, 10 µM | 0.391
HS729, 0.00017 µM | 0.947
HS729, 0.00051 µM | 0.959
HS729, 0.00152 µM | 0.95
HS729, 0.00457 µM | 0.869
HS729, 0.01372 µM | 0.796
HS729, 0.04115 µM | 0.696
HS729, 0.1235 µM | 0.633
HS729, 0.3704 µM | 0.618
HS729, 1.111 µM | 0.609
HS729, 3.333 µM | 0.585
HS729, 10 µM | 0.581
KHOS-NP, 0.00017 µM | 1.023
KHOS-NP, 0.00051 µM | 1.03
KHOS-NP, 0.00152 µM | 1
KHOS-NP, 0.00457 µM | 0.993
KHOS-NP, 0.01372 µM | 0.923
KHOS-NP, 0.04115 µM | 0.872
KHOS-NP, 0.1235 µM | 0.721
KHOS-NP, 0.3704 µM | 0.525
KHOS-NP, 1.111 µM | 0.436
KHOS-NP, 3.333 µM | 0.327
KHOS-NP, 10 µM | 0.237
MES-SA, 0.00017 µM | 0.935
MES-SA, 0.00051 µM | 0.919
MES-SA, 0.00152 µM | 0.903
MES-SA, 0.00457 µM | 0.91
MES-SA, 0.01372 µM | 0.879
MES-SA, 0.04115 µM | 0.825
MES-SA, 0.1235 µM | 0.799
MES-SA, 0.3704 µM | 0.791
MES-SA, 1.111 µM | 0.8428
MES-SA, 3.333 µM | 0.728
MES-SA, 10 µM | 0.258
RD, 0.00017 µM | 1.12
RD, 0.00051 µM | 1.12
RD, 0.00152 µM | 1.09
RD, 0.00457 µM | 1.02
RD, 0.01372 µM | 0.953
RD, 0.04115 µM | 0.775
RD, 0.1235 µM | 0.536
RD, 0.3704 µM | 0.458
RD, 1.111 µM | 0.426
RD, 3.333 µM | 0.366
RD, 10 µM | 0.267
SK-ES-1, 0.00017 µM | 1.04
SK-ES-1, 0.00051 µM | 1.03
SK-ES-1, 0.00152 µM | 1.038
SK-ES-1, 0.00457 µM | 1.05
SK-ES-1, 0.01372 µM | 1.02
SK-ES-1, 0.04115 µM | 0.975
SK-ES-1, 0.1235 µM | 0.993
SK-ES-1, 0.3704 µM | 0.934
SK-ES-1, 1.111 µM | 0.896
SK-ES-1, 3.333 µM | 0.673
SK-ES-1, 10 µM | 0.402
SK-LMS-1, 0.00017 µM | 1.03
SK-LMS-1, 0.00051 µM | 1.06
SK-LMS-1, 0.00152 µM | 1.09
SK-LMS-1, 0.00457 µM | 1.04
SK-LMS-1, 0.01372 µM | 1.03
SK-LMS-1, 0.04115 µM | 0.895
SK-LMS-1, 0.1235 µM | 0.722
SK-LMS-1, 0.3704 µM | 0.623
SK-LMS-1, 1.111 µM | 0.611
SK-LMS-1, 3.333 µM | 0.656
SK-LMS-1, 10 µM | 0.4228
SW684, 0.00017 µM | 1.166
SW684, 0.00051 µM | 1.15
SW684, 0.00152 µM | 1.18
SW684, 0.00457 µM | 1.18
SW684, 0.01372 µM | 1.15
SW684, 0.04115 µM | 1
SW684, 0.1235 µM | 0.739
SW684, 0.3704 µM | 0.625
SW684, 1.111 µM | 0.6057
SW684, 3.333 µM | 0.619
SW684, 10 µM | 0.457
SW872, 0.00017 µM | 1.03
SW872, 0.00051 µM | 1.02
SW872, 0.00152 µM | 1.01
SW872, 0.00457 µM | 0.957
SW872, 0.01372 µM | 0.86
SW872, 0.04115 µM | 0.779
SW872, 0.1235 µM | 0.639
SW872, 0.3704 µM | 0.551
SW872, 1.111 µM | 0.521
SW872, 3.333 µM | 0.481
SW872, 10 µM | 0.359
SYO-1, 0.00017 µM | 0.917
SYO-1, 0.00051 µM | 0.923
SYO-1, 0.00152 µM | 0.91
SYO-1, 0.00457 µM | 0.865
SYO-1, 0.01372 µM | 0.779
SYO-1, 0.04115 µM | 0.704
SYO-1, 0.1235 µM | 0.645
SYO-1, 0.3704 µM | 0.573
SYO-1, 1.111 µM | 0.528
SYO-1, 3.333 µM | 0.415
SYO-1, 10 µM | 0.188
VA-ES-BJ, 0.00017 µM | 1.04
VA-ES-BJ, 0.00051 µM | 1.04
VA-ES-BJ, 0.00152 µM | 1.04
VA-ES-BJ, 0.00457 µM | 0.996
VA-ES-BJ, 0.01372 µM | 0.856
VA-ES-BJ, 0.04115 µM | 0.688
VA-ES-BJ, 0.1235 µM | 0.502
VA-ES-BJ, 0.3704 µM | 0.447
VA-ES-BJ, 1.111 µM | 0.413
VA-ES-BJ, 3.333 µM | 0.335
VA-ES-BJ, 10 µM | 0.246

From the supplement of paper PMC10883282
